Values of other authors as cited in publication PMC11206399, “In Vitro/In Vivo Correlation of Two Extended-Release Cilostazol Formulations” (Pharmaceuticals, 2024).
≈ marks a conversion by molar mass, not a printed value.

Key:
platelet aggregation = tested on: platelet aggregation; parameters: method as in doi:10.1111/j.1527-3466.1993.tb00200.x
[1] = parameters: method as in PMID 4074422
Caco-2 cell monolayer = tested on: Caco-2 cell monolayer; parameters: method as in PMID 14603510; conditions: Caco-2 cell monolayer model
[2] = parameters: method as in PMID 10702883; conditions: humans, oral 100 mg Cilostazol tablet

Structure (SMILES): O=c1ccc2cc(OCCCCc3nnnn3C3CCCCC3)ccc2[nH]1 [OPC-13015, 3,4-dehydrocilostazol]
- potency of inhibiting platelet aggregation compared with cilostazol (platelet aggregation): 3 fold

Structure (SMILES): O=C1CCc2cc(OCCCCc3nnnn3C3CCCCC3)ccc2N1 [Cilostazol]
- water solubility [1]: 3.34 µg/mL (≈ 9.04 µM)
- permeability coefficient (Caco-2 cell monolayer): above 1 × 10^−6 cm/s
- increase of AUC of Cilostazol with high-fat breakfast compared with the fasted condition [2]: 25%
- increase of Cmax of Cilostazol with high-fat breakfast compared with the fasted condition [2]: 90%

Structure (SMILES): O=C1CCc2cc(OCCCCc3nnnn3[C@H]3CC[C@H](O)CC3)ccc2N1 [OPC-13213, 4′-trans-hydroxy-cilostazol]
- fold less potent than Cilostazol (inhibiting platelet aggregation) (platelet aggregation): 3 fold
